Non-standard residues stand in square brackets, D forms with d. Residues, ends and D or L forms follow the SMILES beside them. *: point of attachment. dPhe(4-NHCONH2) = NC(=O)Nc1ccc(C[C@@H](N)C(=O)O)cc1; Dihydroorotyl(S) = O=C1C[C@@H](C(=O)*)NC(=O)N1; dPhe(4-Cl) = N[C@H](Cc1ccc(Cl)cc1)C(=O)O; Phe(4-NH2) = Nc1ccc(C[C@H](N)C(=O)O)cc1; d2Nal = N[C@H](Cc1ccc2ccccc2c1)C(=O)O; Lys(iPr) = CC(C)NCCCC[C@H](N)C(=O)O; d3Pal = N[C@H](Cc1cccnc1)C(=O)O
Legend:
Type in all cases: in vivo, human
[1] = test system: patients with risk factors for cardiovascular disease; assay: Cardiovascular disease risk factors in patients taking degarelix; settings: for Blood pressure: baseline 151/90; for Fasting glucose (4.0-6.0): 8.9 in April 2014; for HDL (1.0-2.7 mmol/L): Patient 7, baseline 0.68
Excerpt: In our patient group who were offered degarelix, some patients had risk factors for cardiovascular disease, metabolic syndrome, lipidemia or hypoalphalipoproteinemia (low HDL). None of these patients had recently started medications prior to the GnRH antagonist that could explain the changes in blood pressure, HbA1c, fasting glucose or lipids. See Example 1 for patient information.
Patient 1 with metabolic syndrome fulfilling 3 of 5 metabolic risk factors (large waistline >35 inches, high blood pressure and high fasting glucose). […] High HbA1c, contributes to CVD (normal reference range 4.3-6.1%) At baseline 6.4%, high. By 2 weeks HbA1c had normalized to 6.1%. This continues to be normal, and at 8 months is 5.7%. Their fasting glucose was 6.6 mmol/L in September 2014, by October 2014 this was reduced to 6.3 mmol/L. • 2. High blood pressure, contributes to CVD at baseline 151/90 (measured at several times prior to baseline with repeatedly high blood pressure). Blood pressure by 6 months 120/71, and this continues to be normal. At their last check up at 8 months, their blood pressure was 118/78. • 3. No other abnormalities at baseline for assessment
Patient 4 • High HbA1c, contributes to CVD (normal reference range 4.3-6.1%). At baseline the HbA1c was 6.9%, high. By 1 month the HbA1c had reduced to 6.6, by 2 months 6.4, and by 4 months 6.2, and by 12 months it was normalized to 5.9. Their hospital records from a nearby hospital stated that their fasting glucose was high at 8.5 mmol/L (reference range 4.0-6.0) in December 2013, and by April 2014 this was higher at 8.9. They asked the patient's family doctor to initiate treatment due to the development of diabetes type II. Their fasting glucose had reduced to 6.6 mmol/L by 3 months after starting degarelix, and by 4 months has now normalised to 6.0 mmol/L. No other abnormalities baseline for assessment
Patient 7 • 1. Low HDL, contributes to CVD (normal reference range 1.0-2.7 mmol/L). Mora et al. investigated the link between cholesterol and cardiovascular events in women and found baseline HDL level was consistently and inversely associated with incident coronary and CVD events. A low HDL cholesterol level is thought to accelerate the development of atherosclerosis because of impaired reverse cholesterol transport and possibly because of the absence of other protective effects of HDL, such as decreased oxidation of other lipoproteins. • They had low HDL at baseline 0.68 mmol/L in September 2014. They received their loading dose of degarelix 240 mg s.c. in September 2014. By 1 week, their HDL level had increased to 0.73, and by 2 weeks it continued to increase towards normal at 0.75. By 3 weeks it had normalized to 1.13 mmol/L and at 4 weeks is normal at 1.19 mmol/L. • 2. No other abnormalities at baseline for assessment

[2] = test system: Patient with Systemic Sclerosis; assay: Systemic sclerosis patient treated with degarelix; settings: for HAQ DI: baseline 1.88; for Digital tip ulcers/pitting scars: baseline 5; for Modified Rodnan Skin Score: baseline 42; for VAS Fatigue / VAS Fingertip pain/pitting scars/ulcers / VAS Gastrointestinal Symptoms / VAS Global / VAS Lung/dyspnea / VAS Pain / VAS Raynauds/vascular: baseline 100; for Sleep: baseline 2 hrs/night
Excerpt: • person, diagnosed with systemic sclerosis • Fulfilled the 2013 EULAR/ACR classification criteria for systemic sclerosis (1). • Diagnosis based upon Raynauds phenomenon, positive ANA, high titre anti-Scl 70 antibodies, marked skin changes typical of scleroderma, and esophageal dysmotility. • Previously tried cyclophosphamide and mycophenolate mofetil. • Progressive disease and worsening scleroderma skin features, despite therapy. • Rapid progressive cardiac disease, verified by biopsy. • Experimental treatment • 5 Dec. 2014 received first dose of degarelix, 240 mg s.c. • 9 Jan. 2015 received second dose of degarelix, 80 mg s.c.
• Digital ulcers and pitting scars are a characteristic feature of systemic sclerosis, contributing to disability and pain. They are important factors in patients' evaluations of quality of life (2). Their precise objective evaluation can be included in randomized controlled trials (3). Their pathogenesis is unclear. Histologically, there is a plug-like hyperkeratosis with parakeratosis, homogenized collagen fibers and perivascular mononuclear cell infiltration (4). […] Efficacy variables in a systemic sclerosis patient treated with a GnRH antagonist at baseline, 5 weeks and 6 weeks: […]

[3] = Peripheral GnRH levels by ELISA in patients on degarelix; settings: 3 months
Method: (§1) We analysed peripheral GnRH levels in patients with various autoimmune diseases using ELISA. […] Due to the nature of ELISA assays, the concentration in pg/mL should not necessarily be regarded as absolute, and may be interpreted as relative. RA Patient A Baseline GnRH 394 pg/mL, after 3 months of degarelix with loading dose 240 mg, and maintenance doses 80 mg every 2 weeks, GnRH 359 pg/mL. […] During that month/6 weeks […] general function had improved, for example MSIS-29 had reduced from 121 to 110. […] During that period their PASI score reduced by more than 20%. Healthy control 1 baseline GnRH 162 pg/mL, healthy control 2 baseline GnRH 120 pg/mL, healthy control 3 baseline GnRH 153 pg/mL.

[4] = test system: peripheral GnRH; assay: as above
Method: as §1

CC(=O)N[C@H](Cc1ccc2ccccc2c1)C(=O)N[C@H](Cc1ccc(Cl)cc1)C(=O)N[C@H](Cc1cccnc1)C(=O)N[C@@H](CO)C(=O)N[C@@H](Cc1ccc(NC(=O)[C@@H]2CC(=O)NC(=O)N2)cc1)C(=O)N[C@H](Cc1ccc(NC(N)=O)cc1)C(=O)N[C@@H](CC(C)C)C(=O)N[C@@H](CCCCNC(C)C)C(=O)N1CCC[C@H]1C(=O)N[C@H](C)C(N)=O [degarelix] (Ac-[d2Nal][dPhe(4-Cl)][d3Pal]S[Phe(4-NH2)](Dihydroorotyl(S))[dPhe(4-NHCONH2)]L[Lys(iPr)]P[dA]-NH2)
Fasting glucose ([1]; Patient 1, October 2014, 6.6 mmol/L in September 2014): 6.3 mmol/L | Criteria for metabolic syndrome ([1]; Patient 1, after degarelix, 3 of 5 risk factors before): no longer fulfills the criteria | HbA1c (4.3-6.1%) ([1]; Patient 1, at 8 months, baseline 6.4%): 5.7% | Blood pressure ([1]; Patient 1, at 8 months): 118/78 | HbA1c (4.3-6.1%) ([1]; Patient 1, by 2 weeks, baseline 6.4%): 6.1% | Blood pressure ([1]; Patient 1, by 6 months): 120/71 | HbA1c (4.3-6.1%) ([1]; Patient 4, by 1 month, baseline 6.9%): 6.6% | HbA1c (4.3-6.1%) ([1]; Patient 4, by 2 months, baseline 6.9%): 6.4% | Fasting glucose (4.0-6.0) ([1]; Patient 4, by 3 months): 6.6 mmol/L | Fasting glucose (4.0-6.0) ([1]; Patient 4, by 4 months, normalised): 6.0 mmol/L | HbA1c (4.3-6.1%) ([1]; Patient 4, by 4 months, baseline 6.9%): 6.2% | HbA1c (4.3-6.1%) ([1]; Patient 4, by 12 months, normalized, baseline 6.9%): 5.9% | HDL (1.0-2.7 mmol/L) ([1]; at 4 weeks): 1.19 mmol/L | HDL (1.0-2.7 mmol/L) ([1]; by 1 week): 0.73 mmol/L | HDL (1.0-2.7 mmol/L) ([1]; by 2 weeks): 0.75 mmol/L | HDL (1.0-2.7 mmol/L) ([1]; by 3 weeks, normalized): 1.13 mmol/L | HAQ DI ([2]; 5 weeks): 1.38 | Digital tip ulcers/pitting scars ([2]; 5 weeks): 2 | Modified Rodnan Skin Score ([2]; 5 weeks): 40 | VAS Fatigue ([2]; 5 weeks): 75 | VAS Fingertip pain/pitting scars/ulcers ([2]; 5 weeks): 40 | VAS Gastrointestinal Symptoms ([2]; 5 weeks): 80 | VAS Global ([2]; 5 weeks): 40 | VAS Lung/dyspnea ([2]; 5 weeks): 80 | VAS Pain ([2]; 5 weeks): 10 | VAS Raynauds/vascular ([2]; 5 weeks): 40 | Sleep ([2]; 5 weeks): 5 hrs/night | HAQ DI ([2]; 6 weeks): 1.38 | Digital tip ulcers/pitting scars ([2]; 6 weeks): 2 | Modified Rodnan Skin Score ([2]; 6 weeks): 40 | VAS Fatigue ([2]; 6 weeks): 60 | VAS Fingertip pain/pitting scars/ulcers ([2]; 6 weeks): 30 | VAS Gastrointestinal Symptoms ([2]; 6 weeks): 60 | VAS Global ([2]; 6 weeks): 40 | VAS Lung/dyspnea ([2]; 6 weeks): 50 | VAS Pain ([2]; 6 weeks): 10 | VAS Raynauds/vascular ([2]; 6 weeks): 30 | Sleep ([2]; 6 weeks): 5.5 hrs/night | PASI score reduction ([3]; Psoriasis Patient C): more than 20% | CRP ([3]; RA Patient A, from 142 mg/L): 54 mg/L | DAS score ([3]; RA Patient A, from 8.6): 4.2 | Peripheral GnRH (ELISA) ([4]; Multiple Sclerosis Patient B, after 1 month, baseline 318): 210 pg/mL | Peripheral GnRH (ELISA) ([4]; Psoriasis Patient C, after 3 months, baseline 300): 274 pg/mL | Peripheral GnRH (ELISA) ([4]; RA Patient A, after 3 months, baseline 394): 359 pg/mL

— patent US20160346255A1, “METHODS, AGENTS AND COMPOSITIONS FOR TREATMENT OF INFLAMMATORY CONDITIONS” (Betanien Hospital, priority 2014, published 2016)
